Source: patent US20230135671A1, “USE OF BIOMARKERS IN THE TREATMENT OF FIBROTIC CONDITIONS” (Boehringer Ingelheim International GmbH, priority 2020, published 2023)

Legend:
[1] = test system: 14 Nintedanib-responsive genes; test: GSVA of the 14-gene set, SENSCIS trial, SSc-ILD patients; format: in vivo, human; conditions: at both visits (24 and 52 weeks), no significant change with Placebo
Description: (§1) Gene set variance analysis (GSVA): The Bioconductor package Gene Set Variance Analysis version 1.3.2 was applied to score each sample individually for the activity of the 14 genes (LTF, CEACAM6, CTSG, OLFM4, MMP8, CEACAM8, DEFA4, OLR1, SHISA4, ABCA13, EMID1, LMOD1, MPO, and PRTN3). The GSVA function was executed with an expression matrix of the log2 Transcripts Per Million (TPM) with a pseudocount of 0.01 added to each value, the list of 14 genes, and the parameter mx.diff set to true. Statistical differences between the GSVA scores between the different treatment groups were tested using a simple linear model and moderated t-statistics computed by the limma package using an empirical Bayes shrinkage method (Law et al., Genome Biol. 2014 Feb 3;15(2):R29.). Identification of genes altered upon Nintedanib treatment in patients with IPF
Following identification of the 14 Nintedanib-responsive genes in the INMARK trial in the context of IPF, expression of these genes was assessed in two additional clinical trials. […] In both of these trials, whole blood samples were prospectively collected and the expression of the 14 said genes was retrospectively analyzed by whole-transcriptome RNA-sequencing. […] Similar effects were observed when the fold changes in expression were calculated in a per-patient fashion (FIG. 8).

[2] = test system: IPF patients; conditions: multiple clinical trials; cited from earlier work
[3] = test system: 14 Nintedanib-responsive genes; test: Whole blood RNA-sequencing of the 14 genes, SENSCIS trial, SSc-ILD patients; format: in vivo, human; conditions: 24 weeks (V70) and, in some instances, 52 weeks (V90), not following Placebo
Experimental: Blood was sampled into PAXgene RNA tubes (PreAnalytix) and RNA was extracted using the PAXgene Blood RNA kit. Quantity of total RNA was determined by direct absorbance measurement at 260 nm using a spectrophotometer. RNA sequencing libraries were prepared using the Illumina TruSeq Stranded Total RNA Library Prep Kit with Ribo-Zero Globin. […] Library quantity was determined using the Quant-it Pico Green dsDNA reagent and quality was checked by analyzing cDNA fragment size using an Agilent Bioanalyzer 2100 device. […]
Normalization factors to scale the samples based on the raw library sizes were calculated using the weighted trimmed mean of M-values (TMM) method using the default parameters of edgeR’s calcNormFactors function (Robinson and Oshlack, Genome Biol. 2010;11(3):R25.). After these pre-processing steps, the log2 counts per million along with associated weights for each observation were then calculated based on the normalized library sizes from the previous step using limma’s voom function (Law et al., Genome Biol. 2014 Feb 3;15(2):R29.). […] Estimates for the mean log2 fold change between follow-up visit at week 12 (wk12) and baseline (bl) in each treatment arm was calculated as
Following identification of the 14 Nintedanib-responsive genes in the INMARK trial in the context of IPF, expression of these genes was assessed in two additional clinical trials. […]

[4] = test system: 14 Nintedanib-responsive genes; test: Gene set variation analysis (GSVA) of the 14-gene set, INMARK trial, IPF patients; format: in vivo, human; conditions: V5 (12 weeks) vs V2, 150 mg b.i.d., p = 1.35E-05, no significant change with Placebo
Description: as §1

[5] = test system: normal human lung fibroblasts; conditions: in vitro; cited from earlier work
[6] = test system: primary human lung fibroblasts from IPF patients; conditions: cited from earlier work
[7] = test system: lung fibroblasts from patients with IPF; conditions: cited from earlier work
[8] = test system: protein-coding genes in whole blood; test: Whole-transcriptome RNA sequencing, differentially expressed genes, INMARK trial, IPF patients; format: in vivo, human
Experimental: Blood was sampled into PAXgene RNA tubes (PreAnalytix) and RNA was extracted using the PAXgene Blood RNA kit. Quantity of total RNA was determined by direct absorbance measurement at 260 nm using a spectrophotometer. RNA sequencing libraries were prepared using the Illumina TruSeq Stranded Total RNA Library Prep Kit with Ribo-Zero Globin. Briefly, following removal of ribosomal RNA and globin-encoding mRNA, cleaved RNA fragments were reversely transcribed into first strand cDNA using reverse transcriptase and random primers followed by second strand cDNA synthesis using DNA Polymerase I and RNase H. Strand origin was kept by using Uracil instead of Thymin in the nucleotide mix for […] cDNA synthesis. Following 3′-adenylation and index adapter ligation, cDNA products were purified and enriched by PCR to create the final cDNA library. Library quantity was determined using the Quant-it Pico Green dsDNA reagent and quality was checked by analyzing cDNA fragment size using an Agilent Bioanalyzer 2100 device. Following library dilution to 5 nM, samples were pooled for cluster generation. […]
Quality control: The raw data (single-end read sequences of the captured cDNA fragments) obtained for each sample were assessed for quality using FASTQC v0.11.2. For a successful gene expression analysis of a sample, approximately 50 million reads were required. Reads were mapped to the human reference genome hg38 (GRCh38 Ensembl v. 84) using STAR v2.5.2a. The mapped reads were assessed using RNA-SeQC v1.1.8, whereby mapping statistics (e.g. unique mapping rate, number of detected genes, proportion of reads mapping to protein coding genes) provided the final criteria to decide on usability of the data.
Gene expression intensities were represented as either read counts or TPM values and calculated based on Ensembl v84 gene annotations using subread featureCounts and RSEM version 1.2.31 respectively. Further steps included the use of bamUtil version 1.0.11 and samtools version 1.1 for intermediate calculations such as indexing of bam-files and duplicate read marking. […]

[9] = test system: mouse models of IPF; conditions: cited from earlier work
[10] = clinical trials (i.a. CAPACITY and ASCEND); cited from earlier work
[11] = adj. p-value <0.05, baseline vs week 12

Row | Structure (SMILES) | change in GSVA score of the 14-gene set [1] | annual loss of lung function [2] | expression of most of the 14 genes [3] | change in GSVA score of the 14-gene set [4] | PDGFR-a and-β activation and proliferation of normal human lung fibroblasts [5] | TGF-β-induced fibroblast to myofibroblast transformation [6] | PDGF-or FGF-2-stimulated migration of lung fibroblasts [7] | number of significantly changed genes that were downregulated [8, 11] | number of significantly changed genes that were upregulated [8, 11] | number of protein-coding genes with significant differences in expression pre- vs post-treatment ([8]; adj. p-value <0.05, baseline vs week 12, 150 mg b.i.d.) | total lung collagen ([9]; IPF mouse models) | lymphocyte and neutrophil counts in the bronchoalveolar lavage fluid ([9]; two different mouse models of IPF) | decline of the forced vital capacity (FVC) lung function [10]
1 | COC(=O)c1ccc2c(c1)NC(=O)/C2=C(\Nc1ccc(N(C)C(=O)CN2CCN(C)CC2)cc1)c1ccccc1 [Nintedanib, 3-Z-[1-(4-(N-((4-methyl-piperazin-1-yl)-methylcarbonyl)-N-methyl-amino)-anilino)-1-phenyl-methylene]-6-methoxycarbonyl-2-indolinone] | significant reduction | reduce | downregulated | highly significant reduction | inhibit | inhibited | attenuated | 18 | one | 19 | significant reductions | significant reductions | 
2 | Cc1ccc(=O)n(-c2ccccc2)c1 [Pirfenidone, 5-methyl-1-phenyl-2(1H)-pyridone] |  |  |  |  |  |  |  |  |  |  |  |  | efficacy in reducing
